Five molecules from patent US7341867B2, “Human preprotachykinin gene promoter” (University of Medicine & Dentistry of New Jersey, priority 1999, dated 2008) can be followed below.

The subject of assay [1] is PPT-I promoter (Upstream/N0). The assay is described as follows: Luciferase reporter gene assay, pGL3-Upstream/N0 in transfected bone marrow stroma. In kind it is cell-based, human. As to the method: (§1) Transfected bone marrow stroma was stimulated with optimal concentrations of IL-1α (2.5 ng/ml), SCF (8 ng/ml) or 1 nM substance P, SP (Sigma, St Louis, Mo.) and/or 10 nM NK-1-specific antagonist (CP-99,994) in α-MEM with 2% FCS. In other embodiments, bone marrow stroma was stimulated with 5 μg/ml forskolin, FK (Sigma) for 2 and 5 h. SCF was purchased from R&D Systems (Minneapolis, Minn.) and IL-1α was obtained from Hoffman LaRoche, Nutley, N.J. Pfizer, Inc. (Groton, Conn.) provided CP-99,994. Substance P and CP-99,994 were dissolved and stored as described in Ramewshwar et al (1996), supra. Optimal parameters were determined with dose-response and time-course studies.
pGL3-basic with inserts of different fragments from PPT-I-p1.2 was co-transfected with pβ-gal-Control (0.5 μg each) in 80% confluent bone marrow stroma using SuperFect (Qiagen, Valencia, Calif.). After 48 h cells were scraped in 30 μl 250 mM Tris (pH 8.0) and then lysed by freezing and thawing in a dry ice/ethanol bath. Cell-free lysates (24 μl) were obtained by centrifugation at 15,000 g for 5 min at 4° C. and then diluted with 5× cell culture lysis buffer (Promega). Luciferase and β-gal activities were quantitated with 10 μl of lysates using Luciferase assay system (Promega) and Luminescent β-galactosidase detection kit II (Clontech) respectively. In the experimental model, the ratios of Luciferase/β-gal in cells transfected with vector alone ranged from 0.18 to 0.19 and was normalized to 1. Because cytokines induce the promoter upstream of β-gal, in cytokine-stimulated cells, luciferase activity was presented/mg of total protein the levels normalized with stroma transfected with vector alone. Total protein was determined using standard techniquees well known in the art.
Mutations were performed with a mutagenesis kit (Stratagene, La Jolla, Calif.). The desired mutant sequences (Table 1) were synthesized within 40 nt in the forward and reverse directions and then used in PCR with pGL3 containing wild type Upstream/N0. After PCR amplification, mutation was verified by identification of Apa L1 within CRE-like mutant and the loss of Xho 1 in CRE mutant.

The subject of another assay is β-PPT-I mRNA. The assay is described as follows: Quantitative RT-PCR in stimulated bone marrow stroma. In kind it is cell-based, human. Conditions: for β-PPT-I (molecules/μg total RNA): 8 ng/ml SCF and/or 10 nM CP-99,994. As for the experimental part: (§2) In a second embodiment of the present invention, bone marrow stroma was stimulated in serum-free α-MEM supplemented with Insulin-transferrin-selenium-A (Life Technologies). Quantitative RT-PCR with total RNA, extracted from bone marrow stroma and construction of standard DNA was performed as described in Singh, D., supra. The end sequences of the standard DNA contained gene-specific sequences that are complementary for the reaction primers. The primers in the standard DNA flank neutral DNA. Total RNA (2 μg) was reverse transcribed and 200 ng cDNA used in PCR with specific oligonucleotide primers for PPT-I, NK-1 or NK-2. Standard DNA, log10 fold dilutions, ranged between 10^−2 to 10^−6 attomole/L. Each unknown sample was assayed with a particular concentration of standard DNA in the same reaction tube. PCR products (10 μl) were separated by electrophoresis on 1.5% agarose containing ethidium bromide and the densities of the DNA bands quantitated with a Fluorimager (Molecular Dynamics, Sunnyvale, Calif.) and then analyzed with ImageQuant software. A standard curve was established for each unknown sample: band densities of unknown/standard DNA vs. Log10 standard DNA concentration was used to determine the concentration of RNA molecules in the unknown samples. The concentration of the unknown sample was selected at the concentration in which the ratio of the unknown and standard were equivalent.
as §1
Confluent bone marrow stroma was stimulated with 25 ng/ml rhIL-1α or 10 ng/ml SCF for 24 h. Poly A RNA was isolated from total RNA by selection (2×) on oligo-dT cellulose (Life Technologies). The cellulose column was washed once with 10 mM Tris, pH 7.0; 0.5 M NaCl; […] and once with 10 mM Tris, pH 7.0; 0.2 M NaCl; […]. Poly A RNA was eluted with 10 mM Tris (pH 7.0) and […]. RNA was precipitated by standard techniques and then resuspended in DEPC-treated water. The purity was verified by the absence of rRNA.

The next assay has as its system MCF12A. Nature of the assay: Clonogenic assay, nontransformed mammary epithelial cells. Format: cell-based. Conditions: 1 mM antagonist, 2 weeks; for # of colonies/10^3 cells (±SD): methyl cellulose matrix. As for the experimental part: (§3) Clonogenic assays studied the proliferation of breast cancer cell lines. Duplicate cultures were performed with 10^3 cells/ml in 1.2% methylcellulose matrix that contained various concentrations (between about 100 to 0.001 mM) of NK-1, NK-2 or (NK-1+NK-2) antagonists. Baseline cultures contained media alone. For each cell line, the assay contained the appropriate culture media. Cultures were incubated for 2 wk at 37° C. This was followed by enumeration of colonies that contained more than 10 cells. In a highly preferred embodiment, the concentration of antagonist is 1 nM.
(§4) Increased expression of PPT-I and NK-1 in breast cancer cells (Tables 1 and 2) led to the next set of experiments. A functional role for these genes in breast cancer is established by determining whether PPT-I peptides, endogenously produced by breast cancer cells, can induce their proliferation through autocrine and/or paracrine mechanisms. This question was addressed in six different experiments using clonogenic assay. […] NK-1 or NK-2 antagonists blunted breast cancer cell proliferation by approximately […] when compared to cultures with media alone (Table 4). […] There was no significant difference (p>0.5) in cell proliferation when normal mammary epithelial cells (MCF12A and H5578Bst) were cultured with the antagonists. […] Reduced colony formation was not due to necrosis since >99% of the cells were trypan blue negative in suspension cultures, performed for two weeks with antagonists.

The next assay deals with Hs578Bst. The description is as above. Format: cell-based. Conditions: 1 mM antagonist, 2 weeks; for # of colonies/10^3 cells (±SD): methyl cellulose matrix. As for the experimental part: as §3, §4
For the next assay, the system named is Du4475. The assay is described as follows: Clonogenic assay, proliferation of breast cancer cell line. As to conditions: 1 mM antagonist, 2 weeks; for # of colonies/10^3 cells (±SD): methyl cellulose matrix. Format: cell-based. As to the method: as §3, §4
In the next assay the test system is T47D. The description is as above. Format: cell-based. Conditions: 1 mM antagonist, 2 weeks; for # of colonies/10^3 cells (±SD): methyl cellulose matrix. As for the experimental part:
as §3, §4

The next assay concerns MDAMB-330. The description is as above. In kind it is cell-based. As to conditions: 1 mM antagonist, 2 weeks; for # of colonies/10^3 cells (±SD): methyl cellulose matrix. As to the method:
as §3, §4

A further assay deals with BT474. The description is as above. In kind it is cell-based. As to conditions: 1 mM antagonist, 2 weeks; for # of colonies/10^3 cells (±SD): methyl cellulose matrix. As to the method:
as §3, §4

For the next assay, the system named is ZR7530. The assay is described as above. Format: cell-based. Conditions: 1 mM antagonist, 2 weeks; for # of colonies/10^3 cells (±SD): methyl cellulose matrix. As to the method:
as §3, §4

The next assay concerns NK-1 mRNA. The assay is described as follows: Quantitative RT-PCR in stimulated bone marrow stroma. In kind it is cell-based, human. Conditions: BM stroma; 8 ng/ml SCF or 2.5 ng/ml IL-1a; 16 h; serum-free α-MEM. As for the experimental part: as §2, §1
A further assay has as its system NK-2 mRNA. Described as above. In kind it is cell-based, human. As to conditions: BM stroma; 8 ng/ml SCF or 2.5 ng/ml IL-1a; 16 h; serum-free α-MEM. As for the experimental part:
as §2, §1

Consider `COc1ccccc1CN[C@H]1CCCN[C@H]1c1ccccc1` [CP-99,994], for which, in assay [1] (10 nM CP-99,994, SCF-stimulated transfected stroma), the “luciferase activity in SCF-stimulated cells in the presence of the antagonist” value is given as “significantly reduced”. Besides, in assay [1] (antagonist alone), the “luciferase activity, antagonist alone compared to transfectants with vector alone” value is given as “did not affect”. For the same molecule, the “reduction of SP-induced β-PPT-I” value with β-PPT-I mRNA (10 nM CP-99,994, 1 nM SP) was 7 fold. Further, the “β-PPT-I (molecules/μg total RNA)” value in the assay on β-PPT-I mRNA (BM stroma, 1 nM SP, 16 h) was under 1 molecules/μg total RNA. Also, in the assay with β-PPT-I mRNA (BM stroma, SCF + CP-99,994), the “effect on induction of endogenous PPT-I by SCF” value was “bluned”.
As for `COc1ccccc1CN[C@H]1C2CCN(CC2)[C@H]1C(c1ccccc1)c1ccccc1` [CP96,345], the “percentage of cells cultured in media alone” value (“percentage of cells cultured” below) in the assay on MCF12A was “(94%)”; with Du4475, 39%; in the assay on T47D, 40%; in the assay with MDAMB-330, 38%; in the assay with BT474 it was 39%; in the assay with ZR7530, 41%. Moreover, the “# of colonies/10^3 cells (±SD)” value is listed as 198 ± 18 colonies/10^3 cells with MCF12A; 201 ± 12 colonies/10^3 cells with Hs578Bst; 63 ± 6 colonies/10^3 cells in the assay on Du4475; 60 ± 4 colonies/10^3 cells in the assay on T47D; 65 ± 5 colonies/10^3 cells in the assay with MDAMB-330; 70 ± 5 colonies/10^3 cells in the assay on BT474. Also, in the assay with ZR7530, the “# of colonies/10^3 cells (±SD)” value is 68 ± 8 colonies/10^3 cells.
As for `CC(=O)NC1(c2ccccc2)CCN(CC[C@H](CN(C)C(=O)c2ccccc2)c2ccc(Cl)c(Cl)c2)CC1` [SR48968], the “percentage of cells cultured” value was found to be 95% with MCF12A; 105% in the assay on Hs578Bst; 38% with Du4475; 43% in the assay on T47D; 38% with MDAMB-330; 36% in the assay on BT474. For the same molecule, in the assay with ZR7530, the “percentage of cells cultured” value is recorded as 36%. Moreover, the “# of colonies/10^3 cells (±SD)” value stood at 200 ± 9 colonies/10^3 cells with MCF12A; 210 ± 11 colonies/10^3 cells with Hs578Bst; 60 ± 5 colonies/10^3 cells in the assay with Du4475; 65 ± 7 colonies/10^3 cells in the assay on T47D; 64 ± 4 colonies/10^3 cells with MDAMB-330; 65 ± 8 colonies/10^3 cells with BT474. Moreover, in the assay with ZR7530, the “# of colonies/10^3 cells (±SD)” value is on record as 60 ± 10 colonies/10^3 cells.
Take “substance P (RPKPQQFFGLM) [SP, major PPT-I peptide, preferred ligand for NK-1 (Sigma)]”: the “β-PPT-I (molecules/μg total RNA)” value in the assay on β-PPT-I mRNA (BM stroma, 1 nM SP, 16 h) was found to be 284 ± 12 molecules/μg total RNA.

B1: IL-1a: cytokine IL-1α obtained from Hoffman LaRoche (protein, UniProt P01583 113-271, looked up)
Interleukin-1 alpha: SAPFSFLSNVKYNFMRIIKYEFILNDALNQSIIRANDQYLTAAALHNLDEAVKFDMGAYKSSKDDAKITVILRISKTQLYVTAQDEDQPVLLKEMPEIPKTITGSETNLLFFWETHGTKNYFTSVAHPNLFIATKQDYWVCLAGGPPSITDFQILENQA
On to B1, for which the “increase in luciferase activities compared to unstimulated cells” value in assay [1] (pGL3-Upstream/N0 wild type, optimal SCF or IL-1a, 10 h) came to 3 fold. For the same molecule, the “induction of luciferase in cells transfected with the double mutants” value in assay [1] (pGL3-Upstream/N0 with mutant CRE and CRE-like) was “no significant induction”. In addition, the “β-PPT-I mRNA” value in the assay on β-PPT-I mRNA (BM stroma, 8 ng/ml SCF or 2.5 ng/ml IL-1a, 16 h, serum-free α-MEM) was 4849 ± 121 Molecules/μg total RNA. Also, in the assay with β-PPT-I mRNA (poly A RNA from stroma stimulated with 25 ng/ml rhIL-1α or 10 ng/ml SCF for 24 h, n=6), the “molecules of β-PPT-I/μg poly A” value is on record as 250,100±980 molecules of β-PPT-I/μg poly A. The “NK-1 mRNA” value with NK-1 mRNA is given as 8106 ± 91 Molecules/μg total RNA. The “NK-2 mRNA” value in the assay on NK-2 mRNA worked out at 968 ± 26 Molecules/μg total RNA.
